Results on 86 molecules are retold here after a melting point compilation (Tetko et al.; mined from patent text by program, amines drawn as free bases though some values may be those of a salt).

Molecules are shown by their SMILES. Where only a bound is given, the exact number is not on record here.

With `Nc1nc2ccccc2c2c1ncn2CCCCNC(=O)c1cccnc1`, the melting point (usually the temperature, or range, at which the solid turns liquid) fell in the range of 189 to 190 °C. For `COc1cc2c(cc1OC)C(CCN1CCN(c3cccc(Cl)c3)CC1)OCCC2` (stereo unspecified) the value was 125 to 126 °C. For `COc1ccc(-n2nc(Sc3ccc(-c4ccccc4)cc3)c(C)c(C#N)c2=O)cc1` the value was 205 to 207 °C; for `O=C1CCCc2cc(O)cc(O)c21`, 209 to 210 °C. The result for `CCOC(=O)C1=C(C)NC(C)=C(C(=O)OCC)C1c1cc2ccccc2s1` reads 167 to 169 °C. For the molecule `CCC=CCn1c(=O)sc2c(=O)n(N)c(N)nc21`, the melting point is 137 to 139 °C. `COc1c2c(cc3ccc(=O)oc13)CC(O)O2` (stereo unspecified) came in with a melting point of 135 to 137 °C. The result for `C/C(=C\c1ccc(C=O)cc1)c1ccc2c(c1)C(C)(C)CCC2(C)C` reads 140 to 141 °C; that for `Cc1cnc(-c2ccc(Cl)s2)nc1Cl`, 137 °C. For `CC(C)(C(=O)O)c1ccc(O[Si](C)(C)C(C)(C)C)cc1` the value was 78 to 80 °C; for `CCCCCCC(=O)Nc1ccn(C2OC(CO)C(O)C2O)c(=O)n1` (stereo unspecified), 131 to 136 °C. For `CCn1nc(C(F)(F)F)c(CS(=O)(=O)C2=NOC(C)(CCl)C2)c1C#N` (stereo unspecified) the value was 76 to 78 °C; for `CCCNC(=O)c1c(Cl)cccc1OC(C)(CC)CC`, 100 to 102 °C; for `Cc1cc(C)c(-n2ccc3c(=O)[nH][nH]c(=O)c32)c(C)c1`, > 300 °C.

`O=C1N(Cc2ccc(C(F)(F)F)o2)c2ccccc2C12COc1cc3c(cc12)OCCCO3` (stereo unspecified) returned a melting point of 162 to 164 °C. The result for `Cc1oc(-c2ccccc2)nc1CCOc1ccc(C[C@H](NC(=O)C(F)=Cc2ccccc2)C(=O)O)cc1Br` reads 243 to 245 °C. The result for `O=C(Nc1ccccc1)c1ccc2c(c1)N(C1CC1)C=NS2(=O)=O` reads 278 to 281 °C. In turn, `CN1C2CCCC1CC(NC(=O)c1cccc3nc(-c4ccc(F)cc4)oc13)C2` (stereo unspecified) gave a melting point of 229 to 231 °C. For `O=C(c1ccc(S(=O)(=O)c2ccc3cc(Cl)ccc3c2)cc1)N1CCN(c2ccncc2)CC1` the value was 267 to 269 °C. In the case of `COC(=O)CCc1c(C=O)ccc2c1CCC(NS(=O)(=O)c1ccc(Cl)cc1)C2` (stereo unspecified), the melting point is 110 °C.

On to `CCC(CNC(=O)Cc1c(Cl)cncc1Cl)c1cccc(OC)c1` (stereo unspecified), for which the melting point was 104 to 105 °C. The result for `CN(Cc1ccc2c(Br)c(OC(Cc3ccccc3)C(=O)O)ccc2c1)C(=O)c1oc2ccccc2c1CCc1ccccc1` (stereo unspecified) reads 87 to 90 °C; that for `Clc1ccc(C=Cc2ccccc2)cc1Cl`, 87.7 °C. For `COc1ccc2c(c1)C(=O)C(Cc1cccc(N)c1)C(C)O2` (stereo unspecified) the value was 110 to 112 °C; for `CCCOC(=O)C(Br)=CC1C(C(=O)OC(C#N)c2cccc(Oc3ccccc3)c2)C1(C)C` (stereo unspecified), 64 °C; for `CC(C)N(C(=O)CN1C(=O)C(Cc2n[nH]c3ccccc23)C(=O)N(c2ccccc2)c2ccccc21)c1ccc(C(F)(F)F)cc1` (stereo unspecified), 145 to 148 °C. For `Nc1ccc(Oc2ncc(Cl)cn2)cc1` the value was 125 °C. In turn, `CC1(C(=O)N2CCOCC2)COC(c2nc(-c3ccc(F)cc3)c(-c3ccnc(S(C)(=O)=O)n3)[nH]2)OC1` (stereo unspecified) showed a melting point of 264 to 266 °C. The result for `Cn1c(=O)cc(C(=O)O)c2cc(C(=O)c3ccc(Cl)cc3)ccc21` reads > 260 °C; that for `COCOc1ccc(-c2ncc3ncc(N4CCCCC4=O)cc3n2)cc1`, 202 to 204 °C. `Cc1nn(CC(F)COCc2ccccc2)c(-c2ccc(F)cc2)c1-c1ccc2c(c1)NC(=O)CO2` (stereo unspecified) had a melting point of 138 to 140 °C. The result for `O=C(c1cnc(Cc2ccc(Cl)cc2)[nH]1)N1CCC(c2ccccc2)(c2ccccc2)CC1` reads 105 to 106 °C; that for `COc1ccc(C=N[C@H]2C(OC(C)=O)O[C@H](COC(C)=O)[C@@H](OC(C)=O)[C@@H]2OC(C)=O)cc1` (stereo partly specified), 180 to 181 °C.

The molecule `COc1cc(N(C)C)c(Cl)cc1C(=O)NC1CCN(Cc2ccc(Cl)cc2)C1` (stereo unspecified) yielded a melting point of 172 to 173 °C.

`O=C(NC/C=C\COc1cc(CN2CCCCC2)ccn1)c1ccc[nH]1` yielded a melting point of 136 to 137 °C. The result for `CC(=O)c1ccc(S(=O)(=O)N2CCCC(CO)C2)cc1` (stereo unspecified) reads 104 to 106 °C. For `Cc1ccc(S(=O)(=O)N2[C@@H](Cc3nc(C)no3)CC[C@H]2c2ccc(F)cc2)cc1` (racemic) the value was 103 °C; for `C(#Cc1cnc(-c2cccs2)s1)c1ccccc1`, 94 to 96 °C. The result for `CC(C)(C)OC(=O)N(C(=O)OC(C)(C)C)c1c(C#CBr)c(C#N)nn1-c1c(Cl)cc(C(F)(F)F)cc1Cl` reads 130 to 131 °C; that for `COc1cc(C)nc(NC(=S)NS(=O)(=O)c2ccccc2Cl)n1`, 186 to 188 °C; that for `CCN1CNS(=O)(=O)c2cc(O)ccc21`, 214 to 218 °C. Regarding `N#CN1CCN(c2n[nH]c3ccccc23)CC1`, the melting point is 120 to 122 °C. In turn, `CC(Cn1nnc2ccccc21)(NC(=O)OC1C2CC3CC(C2)CC1C3)C(=O)NCCc1ccccc1` (stereo unspecified) had a melting point of 180 to 185 °C. The result for `CC1(C)CN(CC2Cc3nccnc3C2)c2nc(-c3ccncn3)cc(=O)n2C1` reads 193 to 195 °C. The result for `CCCCc1nc(Cl)c(C(=O)O)n1Cc1ccc2oc(-c3ccccc3-c3nnn[nH]3)c(C(C)(C)C)c2c1` reads 129 to 132 °C; that for `CCCCCCCCC=CCCCCCCCCCCCC(=O)NC`, 48 to 49 °C; that for `COc1cc(C=CC(=O)C=Cc2cc(OC)c(OC)c(OC)c2)cc(OC)c1OC`, 45 to 47 °C.

`O=C(O)C1CCc2c(c3ccccc3n2C(=O)c2ccc(Cl)cc2)C1` (stereo unspecified): the melting point is 210 to 211 °C. On to `CC(O)=C(C#N)CC(=O)Nc1ccc(NC(=O)CBr)cc1`, for which the melting point is > 210 °C. For `CC(C)(C)OC(=O)OCn1c(C(=O)Nc2nc(-c3ccccc3)c(CCO)s2)cc2ccccc21` the value was 180 to 181 °C. Molecule `O=C(O)Cc1ccc(Cc2nc3c(F)c(F)cc(F)c3s2)cc1` gave a melting point of 173 to 175 °C. For `O=C1N=C(N2CCOCC2)SC1c1cncc(-c2cc3c(c(C45CC6CC(CC(C6)C4)C5)c2)OCO3)c1` (stereo unspecified) the value was 255 to 258 °C; for `O=C(O)Cn1c(=O)c(=O)[nH]c2cc(Cl)ccc21`, 318 to 319 °C. For `COc1cc(Nc2c(C#N)cnc3cc(-c4ccc(C(=O)O)cc4)sc23)c(Cl)cc1Cl` the value was > 300 °C. The result for `CC(C)CC(=O)OCC(COC(=O)CC(C)C)OCn1cnc2c(=O)[nH]c(N)nc21` reads 215 to 217 °C; that for `c1ccc(N2CCN(c3nc4cccc5c4n3CCC5)CC2)cc1`, 168 to 169 °C. For `CCOc1nc2cccc(C(=O)O)c2n1Cc1ccc(-c2ccccc2C(=O)O)cc1`, the melting point was 213 to 215 °C. `COc1cc2c(cc1OC)C(C=O)c1ccccc1CC2` (stereo unspecified): the melting point was in the range of 130 to 132 °C. As to `Cn1cc(C(=O)NCc2ccc(Cl)cc2)c(=O)c2scc(COCC[Si](C)(C)C)c21`, the melting point was in the range of 135 to 136 °C. The result for `COCc1cc(Oc2c(Cl)cc(C(F)(F)F)cc2Cl)n[nH]1` reads 141 to 143 °C. For `COc1ccc([C@@H]2CC(=O)N3C(=O)CC[C@H]23)cc1` (relative stereo) the value was 125 to 127 °C.

Take `COc1ccc(S(=O)(=O)C(CCCCOc2ccccc2)(Cc2cccnc2)C(=O)NO)cc1` (stereo unspecified): the melting point worked out at 68 °C. For `Cc1cc(C)c(C=NNC(=O)c2ccc(O)cc2)[nH]1` the value was 261 °C; for `CC1(c2ccc([N+](=O)[O-])cc2)Cc2cc(OCC(=O)O)c(Cl)c(Cl)c2C1=O` (stereo unspecified), 202 to 205 °C. For `COc1ccc(C(=O)N2c3ccccc3C(N3CCSc4ccccc43)=CC2C)cc1OC` (stereo unspecified) the value was 166 to 168 °C; for `C[C@](O)(COc1ccc(C#N)cc1)C(=O)Nc1ccc(C#N)c(Cl)c1`, 103 to 105 °C; for `C#CCN1CC(=O)NC1=O`, 124 to 125 °C. For `O=C(N[C@H]1CCN(CCc2ccc(F)cc2)C1)C1=c2ccccc2=CC=C2CC=CC=C21` the value was 127 to 128 °C; for `CNC(=O)c1ccc(C=CC(=O)NCC(=O)N(C)c2ccc(Cl)c(COc3cccc4ccc(C)nc34)c2)cc1`, 221 to 228 °C; for `CC(=O)[C@H]1CC[C@H](CNC(=O)OCc2ccccc2)CC1`, 66 to 67 °C. On to `Cc1cc2c(s1)CCCNC2=O`, for which the melting point was in the range of 119 to 120 °C. With `O=C(c1ccc(Cl)cc1)c1ccc2nccc(C(=O)O)c2c1`, the melting point is > 260 °C. For `CCC1Cc2cc(NC(C)=O)ccc2C1=O` (stereo unspecified) the value was 154 to 155 °C; for `CS(=O)(=O)Nc1cc2occ([N+](=O)[O-])c(=O)c2cc1Oc1ccccc1`, 225 to 227 °C; for `CCCCCCCCCCC1C(=O)NC(=O)NC1=O`, 190 °C. For `COC(=O)C(CCSC)NC(=O)c1ccc([N+](=O)[O-])cc1-c1ccccc1` (stereo unspecified) the value was 98 to 101 °C. The result for `CC(C)(C)c1ccc(-c2csc(-c3cccc(C(=O)O)c3)n2)cc1` reads 250 to 251 °C; that for `OCC(O)Cc1c(OCc2ccccc2)ccc2ncccc12` (stereo unspecified), 160 to 162 °C; that for `Nc1cc2[nH]c(=O)oc2cc1NC(=O)C(=O)N1CCC(Cc2ccccc2)CC1`, 296 °C. For the molecule `COc1ccc(C[N+](=O)[O-])c(C=CC[N+](=O)[O-])c1OCc1ccccc1`, the melting point is 149 to 150 °C. Molecule `O=C(c1ccccc1F)c1cccc2c1N(C(=O)CBr)CC2` registered a melting point of 136 °C.

`N#CCc1cc(Cl)cc(Cc2nc3c(F)c(F)cc(F)c3s2)c1` had a melting point of 114 to 117 °C. For `COC(=O)c1cc(N2CCSCC2)c(C(F)(F)F)cc1[N+](=O)[O-]` the value was 68 to 82 °C; for `Cc1ccsc1C=Nc1cc([N+](=O)[O-])ccc1O`, 169 to 171 °C; for `CC(=O)C(C#N)c1ccc(F)cc1` (stereo unspecified), 77 to 83 °C. For `OC(c1ccccc1)(c1ccc(C(F)(F)F)cc1)c1ncc[nH]1` (stereo unspecified) the value was 174 to 176 °C.
